According to patent US10570167B2 (Calithera Biosciences, Inc., priority 2016, dated 2020):
pIC50: −log10 of the molar value.

Target: recombinant CD73 (Homo sapiens (Human), UniProt P21589)
Test: Inhibition of soluble recombinant CD73 enzyme activity in vitro (AMP hydrolysis, Malachite Green phosphate detection)
Type: biochemical
Settings: recombinant CD73 0.5 nM, AMP 50 μM, 30 minutes at room temperature
Protocol: Inhibition of the CD73 Enzyme In Vitro
The concentration of inorganic phosphate was determined using a phosphate standard curve.

Chain of recombinant CD73 (P21589 27-547): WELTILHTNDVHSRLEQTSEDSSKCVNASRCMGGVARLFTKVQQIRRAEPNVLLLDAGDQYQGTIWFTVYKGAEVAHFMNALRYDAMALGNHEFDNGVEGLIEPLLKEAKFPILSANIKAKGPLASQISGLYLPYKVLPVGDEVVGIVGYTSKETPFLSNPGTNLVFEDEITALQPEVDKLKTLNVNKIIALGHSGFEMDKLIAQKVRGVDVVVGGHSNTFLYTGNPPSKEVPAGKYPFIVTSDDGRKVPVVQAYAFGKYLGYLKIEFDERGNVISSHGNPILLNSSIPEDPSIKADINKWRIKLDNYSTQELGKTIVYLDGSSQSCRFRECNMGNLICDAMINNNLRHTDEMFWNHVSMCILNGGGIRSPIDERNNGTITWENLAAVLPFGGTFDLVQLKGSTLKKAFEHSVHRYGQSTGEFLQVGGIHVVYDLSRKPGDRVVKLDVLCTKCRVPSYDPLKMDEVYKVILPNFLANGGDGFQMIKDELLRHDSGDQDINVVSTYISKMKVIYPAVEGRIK

| pIC50 | Structure (SMILES) |
| --- | --- |
| 6.98 | Nc1nc(Cl)nc2c1ncn2[C@@H]1O[C@H](COC(Cc2ccc(-c3cccs3)cc2)(C(=O)O)C(=O)O)[C@@H](O)[C@@H]1F [Example 158] |
| 7.25 | Nc1nc(Cl)nc2c1ncn2[C@@H]1O[C@H](COC(Cc2ccc(-c3ccccn3)cc2)(C(=O)O)C(=O)O)[C@@H](O)[C@@H]1F [Example 176] |
| 6.08 | COc1cccc(CC(OC[C@H]2O[C@@H](n3cnc4c(N)nc(Cl)nc43)[C@@H](F)[C@@H]2O)(C(=O)O)C(=O)O)c1 |
| < 4.30 | CCOC(=O)C(Cc1ccc(C(=O)OC)cc1)(OC[C@H]1O[C@@H](n2cnc3c(N)nc(Cl)nc32)[C@H](O)[C@@H]1O)c1nn[nH]n1 (some centres unmarked) [Example 195] |
| 7.12 | Nc1ncc(-c2ccc(CC(OC[C@H]3O[C@@H](n4cnc5c(N)nc(Cl)nc54)[C@@H](F)[C@@H]3O)(C(=O)O)C(=O)O)cc2)cn1 [Example 159] |
| 7.92 | Nc1nc(Cl)nc2c1ncn2[C@@H]1O[C@H](COC(Cc2ccc(-c3ccccc3O)cc2)(C(=O)O)C(=O)O)[C@@H](O)[C@@H]1F [Example 160] |
| 7.33 | Nc1nc(Cl)nc2c1ncn2[C@@H]1O[C@H](COC(Cc2ccc(-c3ccc(C(=O)O)cc3)cc2)(C(=O)O)C(=O)O)[C@@H](O)[C@@H]1F [Example 155] |
| 7.29 | C[C@@]1(O)[C@@H](COC(Cc2ccccc2)(C(=O)O)C(=O)O)O[C@@H](n2cnc3c(N)nc(Cl)nc32)[C@@H]1O [Example 149] |
| 6.28 | CN(C)C(=O)c1cccc(CC(OC[C@H]2O[C@@H](n3cnc4c(N)nc(Cl)nc43)[C@@H](F)[C@@H]2O)(C(=O)O)C(=O)O)c1 |
| < 4.30 | CCOC(=O)C(Cc1ccccc1)(OC[C@H]1O[C@@H](n2cnc3c(N)nc(Cl)nc32)[C@@H](F)[C@@H]1O)c1nn[nH]n1 (some centres unmarked) [Example 193] |
| 6.92 | Nc1nc(Cl)nc2c1ccn2[C@@H]1O[C@H](COC(Cc2ccccc2)(C(=O)O)C(=O)O)[C@@H](O)[C@@H]1F [Example 169] |
| 6.46 | Nc1nc(Cl)nc2c1ncn2[C@@H]1O[C@H](COC(Cc2ccc(F)cc2)(C(=O)O)C(=O)O)[C@@H](O)[C@@H]1F |
| 7.80 | COc1ccccc1C(=O)Nc1ccc(CC(OC[C@H]2O[C@@H](n3cnc4c(N)nc(Cl)nc43)[C@@H](F)[C@@H]2O)(C(=O)O)C(=O)O)cc1 [Example 150] |
| 5.74 | C=C1[C@@H](O)[C@H](n2cnc3c(N)nc(Cl)nc32)O[C@@H]1COC(Cc1ccccc1)(C(=O)O)C(=O)O [Example 154] |
| 5.11 | CC(C)(C)n1nnc(C(Cc2ccccc2)(OC[C@H]2O[C@@H](n3cnc4c(N)nc(Cl)nc43)[C@H](O)[C@H]2O)C(=O)O)n1 (some centres unmarked) [Example 204] |
| 6.92 | Nc1nc(Cl)nc2c1ncn2[C@@H]1O[C@H](COC(Cc2cccc(C(=O)O)c2)(C(=O)O)C(=O)O)[C@@H](O)[C@@H]1F |
| 6.94 | Nc1nc(Cl)nc2c1ccn2[C@@H]1O[C@H](COC(Cc2ccc(C(=O)O)cc2)(C(=O)O)C(=O)O)[C@@H](O)[C@@H]1F [Example 171] |
| 6.56 | Nc1nc(Cl)nc2c1ncn2[C@@H]1O[C@H](COC(Cc2cccc(F)c2)(C(=O)O)C(=O)O)[C@@H](O)[C@@H]1F |
| 8.05 | Nc1nc(Cl)nc2c1ncn2[C@@H]1O[C@H](COC(Cc2ccc(N3CCCNC3=O)cc2)(C(=O)O)C(=O)O)[C@@H](O)[C@@H]1F [Example 179] |
| 4.66 | Nc1ncnc2c1ncn2[C@@H]1O[C@H](COC(Cc2ccccc2)(C(=O)O)C(=O)O)[C@@H](O)[C@H]1F |
| 7.51 | Nc1nc(Cl)nc2c1ncn2[C@@H]1O[C@H](COC(Cc2ccc(-c3ccccc3C(=O)O)cc2)(C(=O)O)C(=O)O)[C@@H](O)[C@@H]1F [Example 151] |
| 6.89 | Nc1nc(Cl)nc2c1ncn2[C@@H]1O[C@H](COC(Cc2ccccc2)(C(=O)O)C(=O)O)[C@@H](O)[C@@H]1F [Example 6, 2-(((2R,3R,4S,5R)-5-(6-amino-2-chloro-9H-purin-9-yl)-4-fluoro-3-hydroxytetrahydro-furan-2-yl)methoxy)-2-benzylmalonic acid] |
| 7.01 | N#Cc1ccc(CC(OC[C@H]2O[C@@H](n3cnc4c(N)nc(Cl)nc43)[C@@H](F)[C@@H]2O)(C(=O)O)C(=O)O)cc1 |
